Earlier results on 1 molecule are cited in patent US20220331377A1, “DELIVERY VEHICLE FOR IN SITU DELIVERING OF PHARMACEUTICAL AGENTS” (priority 2019, published 2022).

The test system of the data set is C. difficile. The settings on record: patients; P=0.05; cited from earlier work.

For the molecule `CN[C@H](CC(C)C)C(=O)N[C@H]1C(=O)N[C@@H](CC(N)=O)C(=O)N[C@H]2C(=O)N[C@H]3C(=O)N[C@H](C(=O)N[C@H](C(=O)O)c4cc(O)cc(O)c4-c4cc3ccc4O)[C@H](O)c3ccc(c(Cl)c3)Oc3cc2cc(c3O[C@@H]2O[C@H](CO)[C@@H](O)[C@H](O)[C@H]2O[C@H]2C[C@](C)(N)[C@H](O)[C@H](C)O2)Oc2ccc(cc2Cl)[C@H]1O` [vancomycin], the “recurrent C. difficile disease (RCDD)” value is given as 50%.
